What all share (assay type): functional, cell-based
The test system of test [1] is HepG2. In words: Cytotoxicity against human HepG2 cells at 20 uM by CCK8 assay. In general terms: Tetrazolium dyes change colour on reduction, which living cells bring about.
The subject of test [2] is LoVo. In words: Cytotoxicity against human LoVo cells at 20 uM by CCK8 assay.
Test [3] deals with RAW264.7. In words: Anti-inflammatory activity against mouse RAW264.7 cells assessed as inhibition of LPS-induced NO release by Griess assay. A general note: The Griess reaction detects nitrite, a stable product of nitric oxide.

Calls of active or inactive are those of the source. The calls are words filed in the database; no cut-off is given here.

In general, IC50 refers to the concentration that gives 50% inhibition.

As for `C=C1CC2[C@@H](C(C)C)CC[C@]1(C)[C@H]2C(O)CO` (stereo partly specified), the outcome in test [1] and in test [2] was inactive.

For the compound `C=C1C2C3[C@@H](C[C@@H]2O)[C@]1(C)C(=O)CCC3(C)C`, the outcome in test [1] and in test [2] was inactive.

With `CC(C)[C@H]1CC[C@]2(C)[C@H]3CO[C@]2(CO)C=C[C@@H]13`, the outcome in test [1] and in test [2] was inactive.

In the case of `C=C1[C@@H]2C(O)C(O)[C@H]3[C@@H]2[C@@H](C(C)C)CC[C@@]13CO` (stereo partly specified), the outcome in test [1] and in test [2] was inactive.

In the case of `C=C1C2C3[C@@H](C[C@@H]2O)[C@]1(C)CCC[C@@]3(C)CO`, the result in test [1] and in test [2] was inactive.

With `C=C1[C@@H]2OC[C@H]3[C@@H]([C@H]2O)[C@@H](C(C)C)CC[C@@]13C`, the outcome in test [1] and in test [2] was inactive.

Consider `C=C1C2C3[C@@H](C[C@@H]2O)[C@]1(C)[C@H](O)CCC3(C)C`, for which the outcome in test [1] and in test [2] was inactive.

Regarding `C=C1C2C(=O)C[C@@H]3C2C(C)(C)CC[C@H](O)[C@]13C`, the outcome in test [1] and in test [2] was inactive.

`CC1(C)CCC[C@]2(C)C(CO)=CC1[C@H]2CCO`: the result in test [1] and in test [2] was inactive.

With `C=C1C2C3[C@@H](C[C@@H]2O)[C@]1(C)CC[C@H](O)C3(C)C`, the outcome in test [1] and in test [2] was inactive.

For `CC(=O)/C=C/[C@H]1[C@H]2C(C=O)=C(C)[C@]1(C)CC[C@@H]2C(C)C`, the result in test [1] and in test [2] was inactive. Moreover, in test [3], the IC50 stood at 3.9 µM.

Take `C=C1[C@H](CO)C2[C@@H]([C@H](C)CO)CC[C@]1(C)[C@H]2CO`: the result in test [1] and in test [2] was inactive.

Turning to `C=C1[C@H]([C@@H]2C[C@H](O)C(=O)O2)[C@H]2[C@@H](C(C)C)CC[C@]1(C)[C@H]2CO`, the result in test [1] and in test [2] was inactive.

Turning to `CC(C)[C@H]1CC[C@]2(CO)C(C)[C@@H]3C(O)C(O)[C@H]2C13` (mixture of isomers), the result in test [1] and in test [2] was inactive.

Take `C=C1C2C(=O)C[C@@H]3C2C(C)(C)CCC[C@]13CO`: the result in test [1] and in test [2] was inactive.

Values taken from ChEMBL document CHEMBL5335827, “Divergent Biosynthesis of Bridged Polycyclic Sesquiterpenoids by a Minimal Fungal Biosynthetic Gene Cluster” (J Nat Prod, 2024).
